Data from paper PMC12081876, “Identification of PTGR2 inhibitors as a new therapeutic strategy for diabetes and obesity” (EMBO Molecular Medicine, 2025).
Values joined by “and” are separate entries in the source; they are usually repeats but may differ in a detail not shown here. Equal values may be shown once.

Tests used:
[1] = Pharmacokinetic study in male ICR mice; type: in vivo, mouse; details: plasma
Procedure: Male ICR mice weighing 25–30 g each were obtained from BioLASCO, Taiwan Co., Ltd., Ilan, Taiwan for pharmacokinetic study. Briefly, a single dose of BRRPT245 was given intravenously at 2 mg/kg or oral gavage at 10 mg/kg to the mice. Blood samples were taken at 0 (immediately before dosing), 2, 5 (iv only), 15 and 30 min and at 1, 2, 4, 6, 8, 16, and 24 h after administration. The T1/2 (half-life), Cl (clearance), Vss (steady-state volume of distribution), AUC (area under curve), Cmax (maximum plasma concentration), Tmax (time taken to reach Cmax), and F(bioavailability%) were calculated according to the published formula (Urso et al, [2002]).
The HPLC system consisted of an Agilent 1200 series LC System with BinPump (Waldbronn, Germany) and an Agilent Eclipse XDB C8 (3.0 × 150 mm, 5 µm) interfaced to a Sciex API 4000 tandem mass spectrometer. Mobile phase consisted of 10 mM ammonium acetate containing 0.1% of formic acid (Solvent A) and acetonitrile (Solvent B). For determination of BPTPT0245, the following stepwise gradient system was used: 85% A (0–0.5 min), 85% A to 15% A (0.6–3.0 min), 5% A (3.1–5.0 min). Total running time was 5 min. The retention times of BPRPT0245 and BPR0L187 (internal standard) (IS) were 2.21 and 2.42 min, respectively. Data acquisition was via selected ion monitoring (SIM). The collision energy was +37 V for the analyte and +38.5 V for IS, respectively. The ions monitored for BPRPT0245 were m/z 447/189 and m/z 357/195, respectively. […] Total running time was 6 min. […] Data acquisition was via SIM.
To prepare the BPRPT0245 plasma samples, 50 µL of the plasma sample mixed with 100 µL acetonitrile containing […] of BPR0L187. The mixture was vortexed for 30 s and then centrifuged at 15,000 rpm for 20 min in an Eppendorf Model 5417c centrifuge at room temperature. An aliquot (5 µL) of the mixture was then injected onto to LC-MS/MS.

human PTGR2 (hPTGR2) = molecular target: T1, human PTGR2 (hPTGR2) (Homo sapiens, UniProt Q8N8N7); test: Recombinant human PTGR2 enzymatic inhibition (NADPH-Glo), IC50; type: biochemical
T1 construct: made in house
T1 sequence (Q8N8N7 whole entry): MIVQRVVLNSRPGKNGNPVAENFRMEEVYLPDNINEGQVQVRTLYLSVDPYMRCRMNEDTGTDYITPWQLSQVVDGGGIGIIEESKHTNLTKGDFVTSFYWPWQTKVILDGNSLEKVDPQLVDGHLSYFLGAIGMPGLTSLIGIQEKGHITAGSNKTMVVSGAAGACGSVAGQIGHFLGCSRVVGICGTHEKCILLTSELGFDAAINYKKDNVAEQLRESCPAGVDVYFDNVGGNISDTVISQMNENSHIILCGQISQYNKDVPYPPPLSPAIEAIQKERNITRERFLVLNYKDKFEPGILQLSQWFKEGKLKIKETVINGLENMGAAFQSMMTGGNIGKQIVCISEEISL
Procedure: High-throughput compound screening was conducted at the core service in the Genomics Research Center (GRC) of Academia Sinica, Taiwan. The GRC 120 K ReSet comprises more than 125,000 compounds, selected as representatives by structural similarity clustered from the 2 M GRC compound library. The ReSet was arrayed in 1536-well plates as single compounds at 1 mM in 100% DMSO. The quality of all compounds was assured by the vendor (purity is greater than 90%) and was verified internally with 5% random sampling. Recombinant human PTGR2 protein was purified, and the screening was conducted using the NADPH-Glo Detection kit (Promega) to measure the amount of NADPH. The CV of HTS ranged from 4.8% to 6.1%, with a Z’ value of 0.7. The threshold was set as 1.5, resulting in ~300 hits for further confirmation and determination of the half-maximal inhibitory concentration (IC50). […]

mPPARγ LBD H351A mutant = molecular target: T2, mPPARγ LBD H351A mutant (Mus musculus, UniProt P37238, H351A); test: Native mass spectrometry ligand binding, mPPARγ LBD H351A; design: species or system murine
T2 construct: mPPARγ LBD H351A mutant
T2 sequence (P37238 238-503 H351A limits assumed): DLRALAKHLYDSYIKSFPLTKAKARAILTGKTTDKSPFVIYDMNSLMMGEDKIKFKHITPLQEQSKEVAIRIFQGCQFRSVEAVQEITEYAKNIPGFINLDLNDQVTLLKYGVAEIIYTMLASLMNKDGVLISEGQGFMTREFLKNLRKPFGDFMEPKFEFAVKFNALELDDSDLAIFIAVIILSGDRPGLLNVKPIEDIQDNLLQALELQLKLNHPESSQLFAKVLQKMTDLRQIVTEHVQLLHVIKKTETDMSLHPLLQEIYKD
Procedure: Wide-type mPPARγ ligand binding domain (LBD), mPPARγ LBD C313A mutant, and mPPARγ LBD H351A mutant were mixed together in a 1:1:1 molar ratio and then incubated with 15-keto-PEG2 or pioglitazone in a 1:10 molar ratio for 5 min at room temperature, respectively. The protein mixture was buffer-exchanged into 500 mM ammonium acetate buffer pH 7.5 using 7 K Zeba™ Spin Desalting Column (cat. no, 89877, Thermo) and immediately introduced into a modified Q-Exactive mass spectrometer (Thermo). The sets of optimized parameters were applied to analyze the ligand binding, including the higher-energy collisional dissociation (HCD) energy of 20 V; spray voltage, 1.1 kV; capillary temperature, 200 °C; S-lens RF level, 200; and resolution, 12,500 at m/z 400. Spectra were acquired and processed manually using Thermo Xcalibur Qual Browser (version 4.4.16.14). The relative percentage of compound-bound forms was quantified by the UniDec software and the degree of effector coupling was calculated by normalizing the relative percentage of bound forms to the sum of the percentage of unbound and bound forms.

mPPARγ = molecular target: T3, mPPARγ (Mus musculus, UniProt P37238); test: Co-immunoprecipitation in mouse white adipose tissue; type: binding; details: epididymal white adipose tissue of Ptgr2+/+ and Ptgr2−/− mice
T3 construct: from tissue; host or cells: perigonadal (epididymal) white adipose tissue of Ptgr2+/+ and Ptgr2-/- mice
T3 sequence (P37238 whole entry): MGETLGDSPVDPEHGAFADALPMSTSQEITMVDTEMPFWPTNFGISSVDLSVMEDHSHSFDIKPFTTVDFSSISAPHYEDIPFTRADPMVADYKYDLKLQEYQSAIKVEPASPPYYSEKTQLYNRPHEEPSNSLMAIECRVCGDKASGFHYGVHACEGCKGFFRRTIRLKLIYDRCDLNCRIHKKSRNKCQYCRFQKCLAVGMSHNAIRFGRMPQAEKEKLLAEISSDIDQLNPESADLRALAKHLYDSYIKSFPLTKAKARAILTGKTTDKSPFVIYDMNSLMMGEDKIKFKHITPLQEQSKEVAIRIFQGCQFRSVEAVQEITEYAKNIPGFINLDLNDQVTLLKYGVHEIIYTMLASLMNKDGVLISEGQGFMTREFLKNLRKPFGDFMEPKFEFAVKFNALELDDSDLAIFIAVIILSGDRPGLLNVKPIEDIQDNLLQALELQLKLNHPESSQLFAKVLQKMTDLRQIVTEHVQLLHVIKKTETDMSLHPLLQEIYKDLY
Description: Lysates from the perigonadal fat of Ptgr2^+/+ and Ptgr2^−/− mice were immunoprecipitated with a mouse anti-15-keto-PGE2-cysteine-BSA antibody (1:1000) and then immunoblotted with a rat anti-PPARγ antibody (1:1000, cat. no. sc-7273, Santa Cruz Biotechnology).

SMILES	AUC(0-inf) ([1]; Mouse IV, dose 2 mg/kg) [ng·h/mL]	clearance ([1]; Mouse IV, dose 2 mg/kg) [mL/min/kg]	half-life ([1]; Mouse IV, dose 2 mg/kg) [h]	Vd ([1]; Mouse IV, dose 2 mg/kg, read-out: Vss) [L/kg]	AUC(0-inf) ([1]; Mouse PO, dose 10 mg/kg) [ng·h/mL]	Cmax ([1]; Mouse PO, dose 10 mg/kg) [ng/mL]	Tmax ([1]; Mouse PO, dose 10 mg/kg) [h]	half-life ([1]; Mouse PO, dose 10 mg/kg) [h]	bioavailability ([1]; Mouse PO, dose 10 mg/kg, read-out: F(%) bioavailability) [%]	Figure 5B raw signal of the hPTGR2 inhibition dose-response (replicates) (human PTGR2 (hPTGR2); concentration 4.6 (unit not given))	Figure 5B raw signal of the hPTGR2 inhibition dose-response (replicates) (human PTGR2 (hPTGR2); concentration 13.7 (unit not given))	Figure 5B raw signal of the hPTGR2 inhibition dose-response (replicates) (human PTGR2 (hPTGR2); concentration 41.2 (unit not given))	Figure 5B raw signal of the hPTGR2 inhibition dose-response (replicates) (human PTGR2 (hPTGR2); concentration 123.5 (unit not given))	Figure 5B raw signal of the hPTGR2 inhibition dose-response (replicates) (human PTGR2 (hPTGR2); concentration 370.4 (unit not given))	Figure 5B raw signal of the hPTGR2 inhibition dose-response (replicates) (human PTGR2 (hPTGR2); concentration 1111.1 (unit not given))	Figure 5B raw signal of the hPTGR2 inhibition dose-response (replicates) (human PTGR2 (hPTGR2); concentration 3333.3 (unit not given))	Figure 5B raw signal of the hPTGR2 inhibition dose-response (replicates) (human PTGR2 (hPTGR2); concentration 10000 (unit not given))	IC50 (human PTGR2 (hPTGR2); human PTGR2 enzymatic activity) [nM]	effect of H351A mutation on binding (native MS) (mPPARγ LBD H351A mutant)	co-immunoprecipitation of mPPARγ with anti-15-keto-PGE2-cysteine-BSA antibody in fat tissue (mPPARγ)
Cc1[nH]c2nc(C(C)N3CCN(c4ccccc4)CC3)nn2c(=O)c1Cc1ccc(F)cc1 (centres unmarked) [BPRPT0245]	480	79.5	2	5	725	398	0.4	2.5	30.2	5700 and 5540	12160 and 11080 and 9760	25040 and 27420 and 26900	32220 and 32000 and 34120	37280 and 38620 and 37900	40200 and 38760 and 38680	40060 and 40940 and 40560	42020 and 40520 and 40720	8.92		
CCCCCC(=O)/C=C/[C@H]1[C@H](O)CC(=O)[C@@H]1C/C=C\CCCC(=O)O [15-keto-PGE2, 15-keto-prostaglandin E2]																			only a minor impact on 15-keto-PGE2 binding	confirming the covalent binding of mPPARγ to 15-keto-PGE2
